Where a name gives a salt, the structure may show the parent alone.
Assays:
[1] = room temperature; crystals were indomethacin:lidocain 2:1; cited from earlier work
[2] = Form of the salt on standing / long-term preservation; format: physicochemical
Experimental: First, a salt was produced using equimolar amounts of a carboxylic acid NSAID and organic amine. […] The obtained ionic liquid or crystals and the like were left standing, confirmed to be stable, and then the forms thereof were observed. This has clarified that the salt produced by the combination of NSAID and an organic amine compound may be a liquid (viscous liquid) or crystal at ambient temperature (25° C.).

[3] = Skin permeability test using isolated rat abdominal skin (Franz-type diffusion cell); conditions: accumulated up to 6 hours, 2.5 wt % as NSAID free acid in diethyl sebacate/propylene glycol, 32° C.
Experimental: An equimolar salt of NSAID and organic amine was dissolved in a mixture of diethyl sebacate and propylene glycol to give a solution preparation. For comparison, a solution preparation (control) of NSAID was prepared in the same manner.
As a receptor solution, saline-ethanol solution (9:1, 8 ml) was placed in an upright Franz-type diffusion cell (effective diffusion area: 1 cm^2), and the solution was stirred and maintained at 32° C. An isolated abdominal shaved skin of 6-week-old Wistar rat was applied to the Franz cell, and the prepared solution preparation (0.15 ml) was applied to the skin. A part (300 μL) of the receptor solution was taken at predetermined time intervals, the drug concentration in the receptor solution was measured by high performance liquid chromatography, and the drug permeation amount per 1 cm^2 rat skin was calculated.
Unless otherwise indicated, in the following Experimental Examples, the drug concentration of the solution preparation is 2.5 wt % as NSAID free acid, and the skin permeation amount is an accumulated amount (μg/cm^2) up to 6 hours.

[4] = Solubility of NSAID-eperisone salt and NSAID free acid in diethyl sebacate; format: physicochemical; conditions: for dissolution in diethyl sebacate (50 g): 5 g NSAID free acid or ionic liquid corresponding to 5 g NSAID, shaken at room temperature for 30 min; for amount (g) of diethyl sebacate necessary for dissolving NSAID (1 g): NSAID free acid; for amount (g) of diethyl sebacate necessary for dissolving NSAID (1 g) / amount (g) of diethyl sebacate necessary for dissolving an eperisone salt corresponding to NSAID (1 g): room temperature
Experimental: The solubility of an eperisone salt of NSAID, and a free acid of NSAID in diethyl sebacate widely used for external preparations was measured. […] The solutions were stood still and, when an undissolved matter was found, diethyl sebacate was further added, and the mixture was shaken.

CCN(CC)CC(=O)Nc1c(C)cccc1C.COc1ccc2c(c1)c(CC(=O)O)c(C)n2C(=O)c1ccc(Cl)cc1
stability of the ionic liquid when stood still [1]: crystals were gradually precipitated

CCN(CC)CC(=O)Nc1c(C)cccc1C.O=C(O)Cc1ccccc1Nc1c(Cl)cccc1Cl [diclofenac-lidocain salt]
form/note: crystallization during long-term preservation [2]: partial

Cc1ccc(C(=O)C(C)CN2CCCCC2)cc1.O=C(O)Cc1ccccc1Nc1c(Cl)cccc1Cl [diclofenac-tolperisone salt]
diclofenac permeation amount [3]: 20.3 μg/cm^2

COc1cccc(C2(O)CCCCC2CN(C)C)c1.O=C(O)Cc1ccccc1Nc1c(Cl)cccc1Cl (stereo not shown) [diclofenac-tramadol salt]
form/note: crystallization during long-term preservation [2]: crystallized

O=C(O)Cc1ccccc1Nc1c(Cl)cccc1Cl [diclofenac]
dissolution in diethyl sebacate (50 g) [4]: not dissolved
amount (g) of diethyl sebacate necessary for dissolving NSAID (1 g) [4]: not less than 100 g
diclofenac permeation amount [3]: 8.8 μg/cm^2

CCc1cccc2c3c([nH]c12)C(CC)(CC(=O)O)OCC3 (stereo not shown) [etodolac, reference compound]
amount (g) of diethyl sebacate necessary for dissolving NSAID (1 g) [4]: not more than 10 g
etodolac permeation amount [3]: 10.4 μg/cm^2

CCc1ccc(C(=O)C(C)CN2CCCCC2)cc1.CCc1cccc2c3c([nH]c12)C(CC)(CC(=O)O)OCC3 (stereo not shown) [etodolac-eperisone salt]
amount (g) of diethyl sebacate necessary for dissolving an eperisone salt corresponding to NSAID (1 g) [4]: not more than 10 g
etodolac permeation amount [3]: 20.5 μg/cm^2

CCc1cccc2c3c([nH]c12)C(CC)(CC(=O)O)OCC3.Cc1ccc(C(=O)C(C)CN2CCCCC2)cc1 (stereo not shown) [etodolac-tolperisone salt]
etodolac permeation amount [3]: 22.3 μg/cm^2

CC(C(=O)O)c1ccc(-c2ccccc2)c(F)c1 (stereo not shown) [flurbiprofen, reference compound]
amount (g) of diethyl sebacate necessary for dissolving NSAID (1 g) [4]: not more than 10 g
flurbiprofen permeation amount [3]: 20.2 μg/cm^2

CC(C(=O)O)c1ccc(-c2ccccc2)c(F)c1.CC(O)CN(CC(C)O)CC(C)O (stereo not shown) [flurbiprofen-TIPA salt]
flurbiprofen permeation amount [3]: 91.8 μg/cm^2

CC(C(=O)O)c1ccc(-c2ccccc2)c(F)c1.CCc1ccc(C(=O)C(C)CN2CCCCC2)cc1 (stereo not shown) [flurbiprofen-eperisone salt]
amount (g) of diethyl sebacate necessary for dissolving an eperisone salt corresponding to NSAID (1 g) [4]: not more than 10 g

CC(C(=O)O)c1ccc(-c2ccccc2)c(F)c1.CCN(CC)CC(=O)Nc1c(C)cccc1C (stereo not shown) [flurbiprofen-lidocain salt]
flurbiprofen permeation amount [3]: 91.0 μg/cm^2

CC(C(=O)O)c1ccc(-c2ccccc2)c(F)c1.Cc1ccc(C(=O)C(C)CN2CCCCC2)cc1 (stereo not shown) [flurbiprofen-tolperisone salt]
flurbiprofen permeation amount [3]: 46.3 μg/cm^2

CC(C(=O)O)c1ccc(-c2ccccc2)c(F)c1.COc1cccc(C2(O)CCCCC2CN(C)C)c1 (stereo not shown) [flurbiprofen-tramadol salt]
flurbiprofen permeation amount [3]: 78.1 μg/cm^2

CC(O)CN(CC(C)O)CC(C)O.COc1ccc2c(c1)c(CC(=O)O)c(C)n2C(=O)c1ccc(Cl)cc1 [indomethacin-TIPA salt]
indomethacin permeation amount [3]: 15.8 μg/cm^2

CCc1ccc(C(=O)C(C)CN2CCCCC2)cc1.COc1ccc2c(c1)c(CC(=O)O)c(C)n2C(=O)c1ccc(Cl)cc1 [indomethacin-eperisone salt]
amount (g) of diethyl sebacate necessary for dissolving an eperisone salt corresponding to NSAID (1 g) [4]: not more than 10 g

COc1ccc2c(c1)c(CC(=O)O)c(C)n2C(=O)c1ccc(Cl)cc1.Cc1ccc(C(=O)C(C)CN2CCCCC2)cc1 [indomethacin-tolperisone salt]
indomethacin permeation amount [3]: 14.7 μg/cm^2

COc1ccc2c(c1)c(CC(=O)O)c(C)n2C(=O)c1ccc(Cl)cc1.COc1cccc(C2(O)CCCCC2CN(C)C)c1 [indomethacin-tramadol salt]
indomethacin permeation amount [3]: 9.8 μg/cm^2

COc1ccc2c(c1)c(CC(=O)O)c(C)n2C(=O)c1ccc(Cl)cc1 [indomethacin]
dissolution in diethyl sebacate (50 g) [4]: not dissolved
amount (g) of diethyl sebacate necessary for dissolving NSAID (1 g) [4]: not less than 100 g
indomethacin permeation amount [3]: 6.9 μg/cm^2

CC(C(=O)O)c1cccc(C(=O)c2ccccc2)c1 (stereo not shown) [ketoprofen, reference compound]
Ketoprofen permeation amount [3]: 36.1 μg/cm^2

CC(C(=O)O)c1ccc(CC2CCCC2=O)cc1 (stereo not shown) [loxoprofen sodium salt, reference compound]
loxoprofen permeation amount ([3]; sodium salt): 27.1 μg/cm^2

CC(C(=O)O)c1ccc(CC2CCCC2=O)cc1.CCCCN1CCCCC1C(=O)Nc1c(C)cccc1C (stereo not shown) [loxoprofen-bupivacaine salt]
form/note: crystallization during long-term preservation [2]: partially

CC(C(=O)O)c1ccc(CC2CCCC2=O)cc1.CCc1ccc(C(=O)C(C)CN2CCCCC2)cc1 (stereo not shown) [loxoprofen-eperisone salt]
amount (g) of diethyl sebacate necessary for dissolving an eperisone salt corresponding to NSAID (1 g) [4]: not more than 10 g
loxoprofen permeation amount [3]: 91.2 μg/cm^2

CC(C(=O)O)c1ccc(CC2CCCC2=O)cc1.CCN(CC)CC(=O)Nc1c(C)cccc1C (stereo not shown) [loxoprofen-lidocain salt]
loxoprofen permeation amount [3]: 103.4 μg/cm^2

CC(C(=O)O)c1ccc(CC2CCCC2=O)cc1.Cc1ccc(C(=O)C(C)CN2CCCCC2)cc1 (stereo not shown) [loxoprofen-tolperisone salt]
loxoprofen permeation amount [3]: 82.3 μg/cm^2

CC(C(=O)O)c1ccc(CC2CCCC2=O)cc1 (stereo not shown) [loxoprofen]
dissolution in diethyl sebacate (50 g) [4]: not dissolved
amount (g) of diethyl sebacate necessary for dissolving NSAID (1 g) [4]: not less than 100 g
loxoprofen permeation amount ([3]; listed as loxoprofen free acid): 49.5 μg/cm^2

loxoprofen-DIPA salt
loxoprofen permeation amount [3]: 68.6 μg/cm^2

— patent US20100029704A1, “SALT OF NONSTEROIDAL ANTI-INFLAMMATORY DRUG AND ORGANIC AMINE COMPOUND AND USE THEREOF” (priority 2007, published 2010)
